According to patent publication US6642256B2, “Piperidine derivatives as subtype selective N-Methyl-D-Aspartate antagonists” (Warner-Lambert Company LLC, priority 2000, dated 2003):
Counter-ions that a name gives are not always drawn.

tested on: not given; test: not given; conditions: not given

Row | melting point [°C] | Compound
1 | 271 to 276 | O=c1[nH]c2ccc(C3=NOC(CN4CCC(Cc5ccc(F)cc5)CC4)C3)cc2s1 (centres unmarked) (as salt: HCl) [Example 16]
2 | 166 to 170 | O=c1[nH]c2ccc(C3=NOC(CN4CCC(O)(Cc5ccccc5)CC4)C3)cc2o1 (centres unmarked) (as salt: HCl) [Example 17, 6-[5-(4-Benzyl-4-hydroxypiperidin-1-ylmethyl)-4,5-dihydroisoxazol-3-yl]-3H-benzoxazol-2-one]
3 | 254 to 258 | O=c1[nH]c2ccc(C3=NOC(CCN4CCC(Cc5ccc(F)cc5)CC4)C3)cc2o1 (centres unmarked) (as salt: HCl) [Example 19, 6-(5-{2-[4-(4-Fluorobenzyl)piperidin-1-yl]ethyl}-4,5-dihydroisoxazol-3-yl)-3H-benzoxazol-2-one]
4 | 195 to 204 | O=c1[nH]c2ccc(C3=NOC(CN4CCC(O)(Cc5ccc(F)cc5)CC4)C3)cc2o1 (centres unmarked) (as salt: HCl) [Example 20, 6-{5-[4-(4-Fluorobenzyl)-4-hydroxypiperidin-1-ylmethyl]-4,5-dihydroisoxazol-3-yl}-3H-benzoxazol-2-one]
5 | 170 to 178 | O=c1[nH]c2ccc(C3=NOC(CN4CCC([S+]([O-])c5ccc(F)cc5)CC4)C3)cc2o1 (centres unmarked) (as salt: HCl) [Example 29, 6-{5-[4-(4-Fluorobenzenesulfinyl)piperidin-1-ylmethyl]-4,5-dihydroisoxazol-3-yl}-3H-benzoxazol-2-one]
6 | 186 to 191 | O=c1[nH]c2ccc(C3=NOC(CN4CCC(C(O)c5ccc(F)cc5)CC4)C3)cc2o1 (centres unmarked) (as salt: HCl) [Example 31, 6-(5-{4-[(4-Fluorophenyl)hydroxymethyl]piperidin-1-ylmethyl}-4,5-dihydroisoxazol-3-yl)-3H-benzoxazol-2-one]
7 | 146 to 155 | COC(=O)C1(CN2CCC(Cc3ccc(F)cc3)CC2)CC(c2ccc3[nH]c(=O)oc3c2)=NO1 (centres unmarked) (as salt: salt) [Example 23, 5-[4-(4-Fluorobenzyl)piperidin-1-ylmethyl]-3-(2-oxo-2,3-dihydrobenzoxazol-6-yl)-4,5-dihydroisoxazole-5-carboxylic acid methyl ester]
8 | 224 to 233 | O=c1[nH]c2ccc(C3=NOC(CN4CC[C@@H](Cc5ccc(F)cc5)[C@@H](O)C4)C3)cc2o1 (stereo in doubt) (as salt: HCl) [Example 26, 6-{5-[4-(4-Fluorobenzyl)-3-hydroxypiperidin-1-ylmethyl]-4,5-dihydroisoxazol-3-yl}-3H-benzoxazol-2-one]
9 | 212 to 214 | CCOC(=O)C1(Cc2ccc(F)cc2)CCN(CC2CC(c3ccc4[nH]c(=O)oc4c3)=NO2)CC1 (centres unmarked) [Example 24, 4-(4-Fluorobenzyl)-1-[3-(2-oxo-2,3-dihydrobenzoxazol-6-yl)-4,5-dihydroisoxazol-5-ylmethyl]piperidine-4-carboxylic acid ethyl ester]

target: T1, NR1A/NR2B NMDA receptor subtype (Rattus norvegicus, UniProt P35439+Q00960); test: [3H]Ifenprodil binding assay (IFPNR), rat forebrain membranes; conditions: Table 1, 4 nM [3H]-ifenprodil, read-out: IFPNR (IC50 μM)
T1 construct: buffy coat membrane fraction was prepared from frozen adult rat forebrains; tissue Zivic-Miller Laboratories, Inc; host or cells: adult rat forebrain membranes
T1 sequence (Q00960 27-1482, other chains not shown): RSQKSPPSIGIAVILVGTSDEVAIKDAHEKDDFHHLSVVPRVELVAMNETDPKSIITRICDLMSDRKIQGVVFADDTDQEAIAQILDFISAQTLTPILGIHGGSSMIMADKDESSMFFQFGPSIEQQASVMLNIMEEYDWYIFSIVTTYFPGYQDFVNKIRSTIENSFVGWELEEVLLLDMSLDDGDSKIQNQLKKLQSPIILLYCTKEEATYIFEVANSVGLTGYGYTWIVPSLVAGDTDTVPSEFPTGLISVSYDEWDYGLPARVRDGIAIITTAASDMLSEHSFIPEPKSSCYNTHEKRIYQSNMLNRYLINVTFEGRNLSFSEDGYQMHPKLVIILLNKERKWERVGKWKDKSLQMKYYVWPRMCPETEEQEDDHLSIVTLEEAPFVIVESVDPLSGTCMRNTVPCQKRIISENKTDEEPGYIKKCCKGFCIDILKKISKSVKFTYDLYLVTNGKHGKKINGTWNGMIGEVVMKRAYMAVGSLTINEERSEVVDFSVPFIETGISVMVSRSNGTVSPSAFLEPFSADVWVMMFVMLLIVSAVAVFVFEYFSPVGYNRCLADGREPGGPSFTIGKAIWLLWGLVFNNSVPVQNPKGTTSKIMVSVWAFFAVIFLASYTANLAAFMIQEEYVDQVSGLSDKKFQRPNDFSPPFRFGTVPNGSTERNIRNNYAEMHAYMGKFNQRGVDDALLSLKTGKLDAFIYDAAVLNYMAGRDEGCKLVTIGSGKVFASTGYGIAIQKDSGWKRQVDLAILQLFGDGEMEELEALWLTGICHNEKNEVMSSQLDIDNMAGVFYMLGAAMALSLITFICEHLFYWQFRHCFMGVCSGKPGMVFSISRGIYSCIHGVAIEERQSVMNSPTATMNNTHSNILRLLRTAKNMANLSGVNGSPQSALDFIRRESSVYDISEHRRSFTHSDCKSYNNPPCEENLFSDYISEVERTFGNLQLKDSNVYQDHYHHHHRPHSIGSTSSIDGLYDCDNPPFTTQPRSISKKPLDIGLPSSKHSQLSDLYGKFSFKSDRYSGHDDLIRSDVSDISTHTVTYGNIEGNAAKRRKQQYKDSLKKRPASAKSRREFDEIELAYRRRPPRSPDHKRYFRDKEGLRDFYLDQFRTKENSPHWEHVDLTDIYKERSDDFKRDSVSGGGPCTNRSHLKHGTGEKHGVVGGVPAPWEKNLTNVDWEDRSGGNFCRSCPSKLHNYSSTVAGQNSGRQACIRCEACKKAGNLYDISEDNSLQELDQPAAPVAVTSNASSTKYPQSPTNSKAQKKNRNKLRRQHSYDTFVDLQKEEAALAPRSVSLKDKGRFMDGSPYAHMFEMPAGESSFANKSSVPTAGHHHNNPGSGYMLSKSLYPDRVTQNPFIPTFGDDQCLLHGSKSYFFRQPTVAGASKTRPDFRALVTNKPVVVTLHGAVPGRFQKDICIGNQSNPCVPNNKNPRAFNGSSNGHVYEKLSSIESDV
Method: b. [^3H]Ifenprodil Binding Assay (IFPNR) Protocol:
Ifenprodil, [phenyl-^3H]-(specific activity, 66.2 Ci/mmol) was purchased from Dupont NEN Research Products (Boston, Mass.). Ifenprodil tartrate was purchased from Research Biochemicals International (Natick, Mass.). HEPES, glutamate and glycine were purchased from Sigma Chemical Co. (St. Louis, Mo.).
All buffers and reagents used in assay incubations or to dissolve drugs were prepared using water purified through a Milli-Q reverse osmosis system (Millipore Corp., Bedford, Mass.) and treated with UV emissions. Prior to use in the assays buffers were further filtered through a sterile Coming filtration unit (Coming Glass Works, Coming, N.Y.) containing a 0.2 micron filter. Buffer used to rinse the membranes on the assay filters was prepared with purified water, but was not refiltered and was stored no longer than 5 days. Stock solutions of the drugs (usually 10 mM) were dissolved in 20 mM HEPES-KOH buffer pH 7.4 (assay buffer) with the addition of 1 to 5 μL of glacial AcOH, if needed to keep them in solution. Eliprodil was used as the reference NMDA antagonist. A stock solution of eliprodil was prepared, and was buffered with the addition of 10% DMSO. All subsequent dilutions from the stock solution were made in buffer.
An extensively washed buffy coat membrane fraction was prepared from frozen adult rat forebrains (Zivic-Miller Laboratories, Inc., Zelienople, Pa.) as described by Coughenour L. L.; Cordon, J. J., J. Pharmacol. Exp. Ther., 1997;280:584-592, and stored at −80° C. On the day of the assay, pellets of the frozen membrane fractions were resuspended in 35 mL of assay buffer at pH 7.4 using a POLYTRON (Kinematica A. G. Company, Littau, Switzerland) mixer at setting 6. After incubation at 37° C. for 30 minutes in a shaking water bath, the homogenate was centrifuged 40,000×g for 10 minutes at 4° C. The pellets were resuspended in fresh buffer and centrifuged 3 more times before final suspension for use in the assay.
(iii) [^3H]Ifenprodil Binding protocol:
Triplicate incubations were carried out in a volume of 0.5 mL in 1.3 mL polypropylene tubes (Marsh Biomedical Products Inc, Rochester, N.Y.) for 2 hours at room temperature. Incubations contained invention compounds, membranes (100-200 μg protein) and 4 nM [^3H]-ifenprodil in 20 mM HEPES-KOH buffer, pH 7.4 (assay buffer). Assays were started by addition of the membranes. Bound radioligand was separated by filtration under reduced pressure using a TOMTEC Mach II, 96-well cell harvester (Tomtec Inc, Orange, Conn.). Filtration was through Whatman GF/B glass fiber filters (Whatman Ltd., Maidstone, England), which had been soaked for at least 15 minutes in 0.3% polyethylenimine and allowed to air dry. The filters were rinsed with 3 mL of ice cold assay buffer within 6 seconds. Air was allowed to pass through the filters for an additional 10 seconds to remove residual moisture. The filter mat was supported on a cold (−20° C.) TEFLON (E. I. Du Pont de Nemours and Company, Wilmington, Del.) coated support, and filters from individual wells were separated and placed in Mini Poly-Q vials (Becklman Instruments Inc, Fullerton, Calif.) and filled with 4 mL of scintillation cocktail (Beckman Ready Protein^+). Radioactivity retained on the filter was determined by liquid scintillation spectrophotometry. Nonspecific binding was defined as the binding in the presence of […] ifenprodil. Ninety percent of the total binding of ifenprodil was specific binding at the NR1A/NR2B NMDA receptor subtype active site (as opposed to binding at a remote site).
Binding curves were statistically analyzed for a best 1- or 2-site competition fit using GRAPHPAD PRISM software (GraphPad Software Inc, San Diego, Calif.), a computer program used to analyze and graph scientific data. The normalized data was fitted by nonweighted nonlinear regression to either [formula]
Control data was entered as 100%, and no parameters were constrained. […]

Row | IC50 [µM] | Compound
10 | 0.03 | O=c1[nH]c2ccc(C3=NOC(CN4CCC(Cc5ccc(F)cc5)CC4)C3)cc2o1 (racemic) [Example 3, 6-{5-[4-(4-Fluorobenzyl)piperidin-1-ylmethyl]-4,5-dihydroisoxazol-3-yl}-3H-benzoxazol-2-one hydrochloride]

same assay, conditions: Table 2, 4 nM [3H]-ifenprodil, read-out: IFPNR IC50 μm

Row | IC50 [µM] | Compound
11 | 0.54 | O=c1[nH]c2ccc(-c3cnc(CN4CCC(Cc5ccc(F)cc5)CC4)s3)cc2o1 [Example 6, 6-{2-[4-(4-Fluorobenzyl)piperidin-1-ylmethyl]thiazol-5-yl}-3H-benzoxazol-2-one]
12 | 0.45 | O=c1[nH]c2ccc(-c3cnc(CN4CCC(Cc5ccc(F)cc5)CC4)s3)cc2s1 [Example 7, 6-{2-[4-(4-Fluorobenzyl)piperidin-1-ylmethyl]thiazol-5-yl}-3H-benzothiazol-2-one]
13 | 0.066 | S=c1[nH]c2ccc(-c3cnc(CN4CCC(Cc5ccccc5)CC4)s3)cc2[nH]1 [Example 8, 5-[2-(4-Benzylpiperidin-1-ylmethyl)thiazol-5-yl]-1,3-dihydrobenzimidazole-2-thione]
14 | > 1 | O=c1[nH]c2ccc(-c3cnc(CN4CCC(Cc5ccc(F)cc5)CC4)o3)cc2s1 [Example 9, 6-{2-[4-(4-Fluorobenzyl)piperidin-1-ylmethyl]oxazol-5-yl}-3H-benzothiazol-2-one]
15 | > 1 | O=c1[nH]c2ccc(-c3cnc(CN4CCC(Cc5ccccc5)CC4)o3)cc2o1 [Example 10, 6-[2-(4-Benzylpiperidin-1-ylmethyl)oxazol-5-yl]-3H-benzoxazol-2-one]
16 | > 1 | O=C1Cc2cc(-c3cnc(CN4CCC(Cc5ccccc5)CC4)o3)ccc2N1 [Example 11, 5-[2-(4-Benzylpiperidin-1-ylmethyl)oxazol-5-yl]-1,3-dihydroindol-2-one]
17 | 0.394 | O=c1[nH]c2ccc(C3=NCC(CN4CCC(Cc5ccc(F)cc5)CC4)S3)cc2o1 (centres unmarked) [Example 12, 6-{5-[4-(4-Fluorobenzyl)piperidin-1-ylmethyl]-4,5-dihydrothiazol-2-yl}-3H-benzoxazol-2-one]
18 | 0.101 | O=c1[nH]c2ccc(C3=NCC(CN4CCC(Cc5ccccc5)CC4)S3)cc2o1 (centres unmarked) [Example 13, 6-[5-(4-Benzylpiperidin-1-ylmethyl)-4,5-dihydrothiazol-2-yl]-3H-benzoxazol-2-one]

same assay, conditions: Table 3, 4 nM [3H]-ifenprodil, read-out: IFPNR IC50

Row | IC50 [µM] | Compound
19 | > 1 | Cc1noc(CN2CCC(Cc3ccccc3)CC2)c1-c1ccc2[nH]c(=O)oc2c1 [Example 2, 6-[5-(4-Benzylpiperidin-1-ylmethyl)-3-methylisoxazol-4-yl]-3H-benzoxazol-2-one]
20 | 0.006 | O=c1[nH]c2ccc(C3=NOC(CN4CCC(O)(Cc5ccccc5)CC4)C3)cc2o1 (centres unmarked) [Example 17, 6-[5-(4-Benzyl-4-hydroxypiperidin-1-ylmethyl)-4,5-dihydroisoxazol-3-yl]-3H-benzoxazol-2-one]
21 | 0.4 | O=c1[nH]c2ccc(C3=NOC(CCN4CCC(Cc5ccc(F)cc5)CC4)C3)cc2o1 (centres unmarked) [Example 19, 6-(5-{2-[4-(4-Fluorobenzyl)piperidin-1-yl]ethyl}-4,5-dihydroisoxazol-3-yl)-3H-benzoxazol-2-one]
22 | 0.008 | O=c1[nH]c2ccc(C3=NOC(CN4CCC(O)(Cc5ccc(F)cc5)CC4)C3)cc2o1 (centres unmarked) [Example 20, 6-{5-[4-(4-Fluorobenzyl)-4-hydroxypiperidin-1-ylmethyl]-4,5-dihydroisoxazol-3-yl}-3H-benzoxazol-2-one]

same assay, conditions: Table 4, 4 nM [3H]-ifenprodil, read-out: IFPNR IC50

Row | IC50 [µM] | Compound
23 | 0.6 | O=c1[nH]c2ccc(C3=NOC(CN4CCC([S+]([O-])c5ccc(F)cc5)CC4)C3)cc2o1 (centres unmarked) [Example 29, 6-{5-[4-(4-Fluorobenzenesulfinyl)piperidin-1-ylmethyl]-4,5-dihydroisoxazol-3-yl}-3H-benzoxazol-2-one]
24 | > 1 | O=c1[nH]c2ccc(C3=NOC(CN4CCC(C(O)c5ccc(F)cc5)CC4)C3)cc2o1 (centres unmarked) [Example 31, 6-(5-{4-[(4-Fluorophenyl)hydroxymethyl]piperidin-1-ylmethyl}-4,5-dihydroisoxazol-3-yl)-3H-benzoxazol-2-one]

same assay, conditions: Table 5, 4 nM [3H]-ifenprodil, read-out: IFPNR IC50

Row | IC50 [µM] | Compound
25 | 0.023 | O=c1[nH]c2ccc(C3=NOC(CN4CC[C@@H](Cc5ccc(F)cc5)[C@@H](O)C4)C3)cc2o1 (stereo in doubt) [Example 26, 6-{5-[4-(4-Fluorobenzyl)-3-hydroxypiperidin-1-ylmethyl]-4,5-dihydroisoxazol-3-yl}-3H-benzoxazol-2-one]
26 | 0.002 | O=c1[nH]c2ccc(C3=NOC(CN4CCC(Cc5ccc(F)cc5)CC4)C3)cc2s1 (centres unmarked) [Example 16]
